The values that follow come from PMC5829097, “Designing Antibacterial Peptides with Enhanced Killing Kinetics” (Frontiers in Microbiology, 2018).

The subject of series [1] is Escherichia coli ATCC 8739. Description: Antimicrobial assay, microdilution method (MIC; % death fitted to Hill equation). It is filed as cell-based. Conditions: for Hill coefficient n, Gram −ve (E. coli 8739): Hill fit of % death after 18 h incubation vs peptide concentration; for EC50: Hill fit of % death after 18 h incubation, peptide concentration for 50% death, peptides tested in μM, unit inferred, read-out: half saturation constant K, Gram −ve (E. coli 8739). As for the experimental part: (§1) Antimicrobial activity of peptides against Gram-positive (Staphylococcus aureus ATCC 25923, S. aureus ATCC 6538P) and Gram-negative (Escherichia coli ATCC 25922, E. coli ATCC 8739) bacteria were determined by microdilution method. Bacterial cultures were grown in Mueller–Hinton (MH) broth at 37°C for 18 h on a shaker to obtain an OD600 nm of 0.8. The cultures were diluted in MH broth to obtain a cell density of 10^5-10^6 c.f.u/ml. The peptides were serially diluted in MH broth. The serially diluted peptides were inoculated with bacterial cultures in 1:1 ratio in sterile 96-well microtiter plates. A bovine myeloid antimicrobial peptide, BMAP28(1–18), was used as the positive control. The peptides were tested for antimicrobial activity in the range from 1 to 100 μM. The MICs of the peptides were determined by OD600 nm measurements after 18 h of incubation at 37°C. Bacterial strains were purchased from National Collection of Industrial Microorganisms, National Chemical Laboratories, Pune, India. The percentage death evaluated for S. aureus ATCC 25923 and E. coli ATCC 8739 after 18 h incubation was fitted to a Hill equation and the parameters namely Hill coefficient (n) and the half-saturation constant (K) were evaluated (Details in Supplementary File).
(§2) The % death value after 18h incubation of the organisms (E. coli ATCC 8739 and S. aureus ATCC 25923) with the peptides was fitted using the Hill equation: […]
(§3) The percentage death was fitted to a sigmoidal input-output relationship through Hill's Equation as given below.
(§4) Here, Y is the normalized percentage death taking values in the range [0,1] and X is the concentration of the antimicrobial peptide. The data for value of Y was obtained through experiments. It can be noted that the Hill's Equation has two parameters namely, n and K, Hill's Coefficient and Half Saturation Constant, also referred to as K0.5. The values of the parameters are specific to a system. The Hill Equation can be linearized as follows.
(§5) The linear equation was fitted by plotting LHS of the above equation versus ln(X). The slope of the best fit line equation (linear regression) will yield the value of Hill's coefficient and the value of the intercept can be further used to evaluate the value of the half saturation constant, K. The Hill coefficient (n) determines the sensitivity of the response (steepness of the sigmoidal curve) and the half saturation constant (K) determines the threshold input needed for the response (equivalent to EC50 value).

Series [2] deals with Staphylococcus aureus ATCC 25923. The series is described as above. Conditions: for Hill coefficient n, Gram +ve (S. aureus 25923): Hill fit of % death after 18 h incubation vs peptide concentration; for EC50: Hill fit of % death after 18 h incubation, peptide concentration for 50% death, peptides tested in μM, unit inferred, read-out: half saturation constant K, Gram +ve (S. aureus 25923). Type of series: cell-based. The procedure: as §1, §2, §3, §4, §5

For the next series, the system named is human RBCs. Description: Cytotoxicity assay against human erythrocytes (hemolysis). Conditions: pH 7.4. It is filed as cell-based. As for the experimental part: Hemolysis was determined by incubating 10% (v/v) suspension of human RBCs in PBS (pH 7.4) with different concentrations of peptides [BMAP28(1–18), P1, and P1m] ranging from 1.56 to 100 μM at 37°C for 1 h. RBCs incubated with 0.1% Triton X-100 was used as the positive control and RBCs incubated with PBS was used as blank. The incubated mixtures were centrifuged at 500 × g for 5 min. The hemolytic activity of the peptides was determined by measuring the absorbance of the supernatant at 541 nm. The percent hemolysis was calculated using the equation:
H=(absorbance of sample−absorbance of blank/absorbance of positive control−absorbance of blank)×100
The percentage hemolysis (H) was fitted using a Hill function with respect to the peptide concentration.
The % hemolysis was fitted using Hill equation to obtain n and K values. These values are also referred in Table 4 in the main text.

The next series has as its system S. aureus ATCC 25923. Description: Killing kinetics assay (time-kill, first order death rate constant). Type of series: cell-based, Staphylococcus aureus. Conditions: for behavior of the kinetic (death rate) constant as a function of peptide concentration: S. aureus time-kill, concentrations up to 50 μM; for Hills coefficient of death rate constant vs peptide concentration (initial saturating phase) / half saturation constant of death rate constant vs peptide concentration (initial saturating phase): fit Equations 1-3, S. aureus ATCC 25923. The procedure:
Overnight grown culture (S. aureus ATCC 25923) was diluted in fresh MH broth and allowed to grow to obtain OD600 nm of 0.8. The culture was diluted in MH broth to obtain a cell density of 10^5-10^6 c.f.u/ml and was incubated with the peptides at various concentrations within the MIC range for each peptide [BMAP28(1–18), P1, and P1m] till a highest concentration of 50 μM. Aliquots were drawn at specific time intervals and plated after dilution on MH agar plates. The plates were incubated at 37°C for 24 h to obtain viable colonies for calculating the initial death rates of the peptides. The kinetic rate constant was determined by evaluation of c.f.u count at various time points ranging from 10 to 45 min. First order death rate constant was determined by plotting log(c.f.u) vs. time and the slope of linear fit yielded the death rate constant. Four to five time points were used to determine the rate constant. Only two time points were considered for death rate constant at very high concentration (50 μM) as complete killing occurred in the first 15 min.
To further study the effect of mutation on behaviour of peptides, the first order rate constant for the death of S. aureus ATCC 25923 was determined by performing time-kill assays using BMAP28(1-18), P1 and P1m. The following equations were obtained by the fit.
In the first phase, the rate constant saturated to about 28.5 h^-1 up to a peptide concentration of 30µM. […] The behaviour of the rate constant was captured as a product of two functions, namely, an initial region represented by Hills Equation indicating a saturating behaviour, and exponential increase post saturation (Equation 1-3). […] A Hills coefficient greater than 2 indicates a sensitive response requiring only about less than 9 fold change in the concentration to reach saturation. But a lower half saturation constant for BMAP28(1-18) indicates higher affinity of binding of the peptides to the cell membrane for BMAP28(1-18) compared to that for P1m. […] This dramatic effect was caused due to a single change in the residue of an amino-acid. It may be possible that the second phase for P1 may occur at a higher concentration of peptide.
The initial rate constant was determined by fitting the first order death kinetics. The CFU (C) of the organism/cell was determined experimentally in time. The first order rate constant, k, was evaluated by linear fitting the equation given below: […]

The subject of series [3] is Escherichia coli ATCC 25922. Put plainly: Antimicrobial assay, microdilution method (MIC). Type of series: cell-based. Conditions: MH broth, 10^5-10^6 c.f.u/ml, 18 h, 37°C, OD600 nm, tested 1 to 100 μM, average range from triplicates of three independent experiments. The procedure:
as §1
On the technique in general: In broth dilution the organism is exposed to a series of concentrations in liquid medium.

Series [4] has as its system Staphylococcus aureus ATCC 6538P. Put plainly: Antimicrobial assay, microdilution method (MIC). It is filed as cell-based. Conditions: value marked *: 50% inhibition, MH broth, 18 h, 37°C, OD600 nm, triplicates of three independent experiments. The procedure:
as §1

Where [5] appears, read: value marked *: 50% inhibition, microdilution, MH broth, 18 h, 37°C, OD600 nm, triplicates of three independent experiments.
Where [6] appears, read: microdilution, MH broth, 10^5-10^6 c.f.u/ml, 18 h, 37°C, OD600 nm, tested 1 to 100 μM, average range from triplicates of three independent experiments.

Marks after values point to notes of the source that are not given here. Square brackets hold non-standard residues; d marks the D form. Peptide text beside a SMILES is read from it. 12Ado = NCCCCCCCCCCCC(=O)O

With `CC[C@H](C)[C@H](NC(=O)[C@H](CCCCN)NC(=O)[C@H](CCCNC(=N)N)NC(=O)CNC(=O)[C@H](CC(C)C)NC(=O)[C@H](CO)NC(=O)[C@H](CCCNC(=N)N)NC(=O)[C@H](CC(C)C)NC(=O)CNC(=O)CNC(=O)CCCCCCCCCCCN)C(=O)N[C@@H](CC(C)C)C(=O)N[C@@H](CCCNC(=N)N)C(=O)N[C@@H](C)C(=O)N[C@@H](Cc1c[nH]c2ccccc12)C(=O)N[C@@H](CCCCN)C(=O)N[C@@H](CCCCN)C(=O)N[C@@H](Cc1ccc(O)cc1)C(=O)NCC(N)=O` [BMAP28(1–18), reference compound] (H-[12Ado]GGLRSLGRKILRAWKKYG-NH2; N-terminus and C-terminus assumed), in series [1], the “Hill coefficient n, Gram −ve (E. coli 8739)” value was found to be 3.07 and the EC50 stood at 2.2 µM. Moreover, in series [2], the “Hill coefficient n, Gram +ve (S. aureus 25923)” value is 2.5 and the EC50 was 1.4 µM. Also, the “half saturation constant K, Human RBCs” value in the series on human RBCs is listed as 61.4. In the series on S. aureus ATCC 25923, the “behavior of the kinetic (death rate) constant as a function of peptide concentration” value is recorded as “biphasic behavior”, the “Hills coefficient of death rate constant vs peptide concentration (initial saturating phase)” value is recorded as 2.4 and the “half saturation constant of death rate constant vs peptide concentration (initial saturating phase)” value is reported as 3.1 µM. In the series with S. aureus ATCC 25923 (at 50µM of the peptide), the “time sufficient to reduce the cell number by half” value was “about 40 s”. For the same compound, the “death rate constant at 50µM of the peptide” value in the series with S. aureus ATCC 25923 (first order, slope of log(c.f.u) vs time, 50 µM, two time points) is “about 60 h^-1”.
For `CC[C@H](C)[C@H](NC(=O)CNC(=O)[C@H](CC(C)C)NC(=O)[C@@H](NC(=O)[C@@H](NC(=O)[C@H](CCCCN)NC(=O)[C@H](CCCNC(=N)N)NC(=O)[C@H](C)NC(=O)[C@H](CC(C)C)NC(=O)[C@H](C)NC(=O)[C@H](CCCNC(=N)N)NC(=O)[C@H](CC(C)C)NC(=O)[C@H](CC(C)C)NC(=O)[C@@H](NC(=O)CCCCCCCCCCCN)C(C)C)[C@@H](C)CC)[C@@H](C)O)C(=O)N[C@@H](CCCCN)C(=O)N[C@@H](CCCCN)C(=O)N[C@@H](Cc1ccc(O)cc1)C(=O)NCC(N)=O` [P1] (H-[12Ado]VLLRALARKITLGIKKYG-NH2), in series [1], the “Hill coefficient n, Gram −ve (E. coli 8739)” value stood at 1.02 and the EC50 was 26.6 µM. Further, in series [2], the “Hill coefficient n, Gram +ve (S. aureus 25923)” value is on record as 1.2 and the EC50 stood at 3 µM. Moreover, the “half saturation constant K, Human RBCs” value in the series on human RBCs was found to be 170. Besides, in the series on S. aureus ATCC 25923, the “behavior of the kinetic (death rate) constant as a function of peptide concentration” value is “monophasic behavior”, the “Hills coefficient of death rate constant vs peptide concentration (initial saturating phase)” value turned out to be 2.3 and the “half saturation constant of death rate constant vs peptide concentration (initial saturating phase)” value is reported as 8.4 µM.
As for “CILRWLARKIPWHAKKYG [P2, designed 18-residue MAP-family-like peptide, N-terminal amino-lauric acid and C-terminal amide]”, the “MIC, E. coli 25922” value in series [3] was “NA (NA-inactive upto 100μM)”. In addition, the “MIC, S. aureus 6538 P (* 50% inhibition)” value in series [4] is 12.5–25^* μM. In addition, the “MIC, E. coli 8739 (* 50% inhibition)” value in series [1] (setting [5]) is listed as 50–100^* μM. For the same compound, in series [2] (setting [5]), the “MIC, S. aureus 25923 (* 50% inhibition)” value is listed as 50–100^* μM.
In the case of “VFLRILVRKIAPGVKKYG [P3, designed 18-residue MAP-family-like peptide, N-terminal amino-lauric acid and C-terminal amide]”, the “MIC, E. coli 25922” value in series [3] is “NA (NA-inactive upto 100μM)”. The “MIC, S. aureus 6538 P (* 50% inhibition)” value in series [4] is recorded as 50–100^* μM. For the same compound, in series [1] (setting [6]), the “MIC, E. coli 8739” value was “NA (NA-inactive upto 100μM)”. In addition, in series [2] (setting [6]), the “MIC, S. aureus 25923” value is “NA (NA-inactive upto 100μM)”.
